Where two headings read alike, the source gives them in different places.
Legend:
[1] = In vivo pharmacokinetic experiment in CD-1 female mice, intravenous; details: CD-1 mice, 2 mpk; for blood plasma ratio: in vivo, iv
Method: Biological Example 3. In Vivo Pharmacokinetic Experiment of Compound of the Present Disclosure
[…] The mice were fasted for at least 12 h before the administration and given food after the administration, and they were given ad libitum access to water during the experiment. On the day of the experiment, animals in the intravenous group were administered the corresponding compound by single injection via the tail vein at an administration volume of 0.2 mL/animal. The sample collection time was 0.083 h, 0.167 h, 0.5 h, 1 h, 2 h, 4 h, 8 h, and 24 h. About 150 μL of whole blood was collected through the submaxillary venous plexus at each time point (30 μL of whole blood was diluted with ultrapure water at a ratio of 1:3, and 120 μL of whole blood was centrifuged to obtain plasma) and used for concentration determination by high-performance liquid chromatography-tandem mass spectrometry (LC-MS/MS). All animals were sacrificed after the PK samples were collected at the last time point. The plasma concentration was processed using a non-compartmental model of Phoenix WinNonlin™ version 8.3 (Certara) pharmacokinetic software, and the pharmacokinetic parameters were calculated using a linear-log trapezoidal method.

[2] = biological target: T1, SAE (Homo sapiens, UniProt Q9UBT2); assay: SUMO IF: in vitro inhibitory activity assay against SAE in HCT116 cells (SUMO-2/3 immunofluorescence); format: cell-based; details: 6 h at 37° C.
T1 construct: endogenous in cells; host or cells: HCT116
T1 sequence (Q9UBT2 1-640): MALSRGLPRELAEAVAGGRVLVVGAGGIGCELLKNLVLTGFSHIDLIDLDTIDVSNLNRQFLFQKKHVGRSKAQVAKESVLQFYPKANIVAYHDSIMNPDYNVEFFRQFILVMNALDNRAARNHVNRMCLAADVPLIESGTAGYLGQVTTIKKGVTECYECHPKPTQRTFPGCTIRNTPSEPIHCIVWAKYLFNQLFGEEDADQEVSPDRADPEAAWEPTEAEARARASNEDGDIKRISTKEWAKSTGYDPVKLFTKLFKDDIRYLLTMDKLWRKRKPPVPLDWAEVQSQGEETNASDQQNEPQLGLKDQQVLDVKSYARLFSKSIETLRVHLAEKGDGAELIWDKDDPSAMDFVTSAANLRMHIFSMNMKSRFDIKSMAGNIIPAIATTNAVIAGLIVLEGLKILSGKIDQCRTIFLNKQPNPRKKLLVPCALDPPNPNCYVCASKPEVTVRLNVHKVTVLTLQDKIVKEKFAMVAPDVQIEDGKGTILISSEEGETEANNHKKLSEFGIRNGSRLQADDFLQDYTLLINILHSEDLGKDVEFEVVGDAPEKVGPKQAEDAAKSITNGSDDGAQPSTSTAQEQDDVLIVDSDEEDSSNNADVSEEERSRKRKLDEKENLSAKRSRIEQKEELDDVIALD
T1 sequence (Q9UBE0 1-346): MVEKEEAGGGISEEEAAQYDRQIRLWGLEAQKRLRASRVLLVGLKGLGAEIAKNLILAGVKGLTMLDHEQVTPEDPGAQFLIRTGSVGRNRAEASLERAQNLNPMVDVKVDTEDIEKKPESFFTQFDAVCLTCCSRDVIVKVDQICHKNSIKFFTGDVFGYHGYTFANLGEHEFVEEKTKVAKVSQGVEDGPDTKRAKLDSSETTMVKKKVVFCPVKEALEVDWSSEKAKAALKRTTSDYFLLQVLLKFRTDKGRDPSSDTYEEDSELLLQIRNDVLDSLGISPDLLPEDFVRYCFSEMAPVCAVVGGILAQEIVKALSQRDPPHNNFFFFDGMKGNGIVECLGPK
Procedure, shortened: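 HCT116 cells were treated with compound for 6 h at 37 °C, then PFA-fixed, Triton-permeabilised and BSA-blocked. They were stained overnight at 4 °C with anti-SUMO-2/3 (18H8) rabbit mAb (1:400), then with FITC anti-rabbit IgG (1:300). Fluorescence versus DMSO gave inhibition rate and IC50.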

Row | SMILES | IC50 ([2]; class symbols) [nM] | also measured
1 | NS(=O)(=O)OC[C@H]1[C@H](F)[C@@H](Nc2ncncc2C(=O)c2cc3c(s2)CC[C@]32NCCc3ccc(Cl)cc32)C[C@@H]1O [Compound 132] | – | Plasma AUClast ([1]; plasma (Table 4)): 602 ng·h/mL; C0 ([1]; mouse, 2 mg/kg, plasma): 803 ng/mL; clearance ([1]; mouse, 2 mg/kg, plasma): 27.5 mL/min/kg; half-life ([1]; mouse, 2 mg/kg, plasma): 3.48 h; AUC(0-t) ([1]; mouse, 2 mg/kg, plasma, read-out: AUClast): 602 ng·h/mL; Cmax ([1]; mouse, 2 mg/kg, plasma, read-out: Cmax): 438 ng/mL; Vd ([1]; mouse, 2 mg/kg, plasma, read-out: Vdss): 5.45 L/kg; AUC(0-t) ([1]; mouse, 2 mg/kg, whole blood, read-out: Whole blood AUClast): 38200 ng·h/mL; Cmax ([1]; mouse, 2 mg/kg, whole blood, read-out: Whole blood Cmax): 9270 ng/mL; blood plasma ratio ([1]; mouse, 2 mg/kg, read-out: Whole blood AUClast/plasma AUClast ratio): 63.4; blood plasma ratio ([1]; mouse, 2 mg/kg, read-out: Whole blood Cmax/plasma Cmax ratio): 21.1; IC50 ([2]; numeric values): 40.6 nM
2 | NS(=O)(=O)OC[C@H]1[C@H](F)[C@@H](Nc2ncncc2C(=O)c2cc3c(s2)CSC[C@@]32NCCc3ccccc32)C[C@@H]1O [Compound 295] | > 200 | –
3 | NS(=O)(=O)OC[C@H]1[C@H](F)[C@@H](Nc2ncncc2C(=O)c2cc3c(s2)C(=O)C[C@@]32NCCc3ccc(Cl)cc32)C[C@@H]1O [Compound 631] | > 200 | –
4 | Cc1sc(C(=O)c2cncnc2N[C@H]2C[C@H](O)[C@@H](COS(N)(=O)=O)[C@@H]2F)cc1C1NCCc2cc(F)c(Cl)cc21 (stereo partly drawn) [Compound 246] | 50 to 200 | –
5 | C#Cc1sc(C(=O)c2cncnc2N[C@H]2C[C@H](O)[C@@H](COS(N)(=O)=O)[C@@H]2F)cc1C1NCCc2ccc(Cl)cc21 (stereo partly drawn) [Compound 259] | 50 to 200 | –
6 | NS(=O)(=O)OC[C@H]1[C@H](F)[C@@H](Nc2ncncc2C(=O)c2cc3c(s2)C(F)=C[C@]32NCCc3ccc(Cl)cc32)C[C@@H]1O [Compound 323] | ≤ 50 | –
7 | N#Cc1ccc2c(c1)[C@@]1(CCCc3sc(C(=O)c4cncnc4N[C@H]4C[C@H](O)[C@@H](COS(N)(=O)=O)[C@@H]4F)cc31)NCC2 [Compound 96] | ≤ 50 | –
8 | [2H]C1([2H])Cc2ccc(Cl)cc2C2(CCCc3sc(C(=O)c4cncnc4N[C@H]4C[C@H](O)[C@@H](COS(N)(=O)=O)[C@@H]4F)cc32)N1 (stereo partly drawn) [Compound 660] | 50 to 200 | –
9 | NS(=O)(=O)OC[C@H]1[C@H](F)[C@@H](Nc2ncncc2C(=O)c2nc3c(s2)CCC[C@]32NCCc3ccc(Cl)cc32)C[C@@H]1O [Compound 587] | 50 to 200 | –
10 | NS(=O)(=O)OC[C@H]1[C@H](F)[C@@H](Nc2ncncc2C(=O)c2cc3c(s2)C(F)=CC32NCCc3ccc(F)cc32)C[C@@H]1O (stereo partly drawn) [Compound 618] | 50 to 200 | –
11 | NS(=O)(=O)OC[C@H]1[C@H](F)[C@@H](Nc2ncncc2C(=O)c2cc3c(s2)CSC[C@@]32NCCc3ccc(F)cc32)C[C@@H]1O [Compound 298] | > 200 | –
12 | NS(=O)(=O)OC[C@H]1[C@H](F)[C@@H](Nc2ncncc2C(=O)c2cc3c(s2)CN(C2CC2)C[C@]32OCCc3ccc(F)cc32)C[C@@H]1O [Compound 740] | ≤ 50 | –
13 | CN1Cc2sc(C(=O)c3cncnc3N[C@H]3C[C@H](O)[C@@H](COS(N)(=O)=O)[C@@H]3F)cc2[C@@]2(C1)OCCc1ccc(F)cc12 [Compound 721] | > 200 | –
14 | CC1(C)CNC2(CCCc3sc(C(=O)c4cncnc4N[C@H]4C[C@H](O)[C@@H](COS(N)(=O)=O)[C@@H]4F)cc32)c2cc(Cl)ccc21 (stereo partly drawn) [Compound 1026] | 50 to 200 | –
15 | NS(=O)(=O)OC[C@H]1[C@H](F)[C@@H](Nc2ncncc2C(=O)c2cc3c(s2)C(F)=C[C@]32NCCc3ccc(F)cc32)C[C@@H]1O [Compound 620] | 50 to 200 | –
16 | NS(=O)(=O)OC[C@H]1[C@H](F)[C@@H](Nc2ncncc2C(=O)c2cc3c(s2)CC=C[C@]32NCCc3ccc(Cl)cc32)C[C@@H]1O [Compound 681] | ≤ 50 | –
17 | NS(=O)(=O)OC[C@H]1[C@H](F)[C@@H](Nc2ncncc2C(=O)c2cc3c(s2)OC[C@]32NCCc3ccccc32)C[C@@H]1O [Compound 141] | 50 to 200 | –

Row | SMILES | IC50 ([2]; class symbols) [nM] | also measured
18 | NS(=O)(=O)OC[C@H]1[C@H](F)[C@@H](Nc2ncncc2C(=O)c2cc3c(s2)CCC32NCCc3ccc(C(F)(F)F)cc32)C[C@@H]1O (stereo partly drawn) [Compound 151] | 50 to 200 | –
19 | NS(=O)(=O)OC[C@H]1[C@H](F)[C@@H](Nc2ncncc2C(=O)c2cc3c(s2)CCCC32NCCc3ccc(C4CC4)cc32)C[C@@H]1O (stereo partly drawn) [Compound 107] | 50 to 200 | –
20 | NS(=O)(=O)OC[C@H]1[C@H](F)[C@@H](Nc2ncncc2C(=O)c2cc3c(s2)CSC[C@]32NCCc3ncc(Cl)cc32)C[C@@H]1O [Compound 614] | ≤ 50 | –
21 | Cc1sc(C(=O)c2cncnc2N[C@H]2C[C@H](O)[C@@H](COS(N)(=O)=O)[C@@H]2F)cc1[C@H]1NCCc2ccc(C#N)cc21 [Compound 240] | > 200 | –
22 | NS(=O)(=O)OC[C@H]1[C@H](F)[C@@H](Nc2ncncc2C(=O)c2cc3c(s2)C=C[C@@]32OCCc3ccc(Cl)cc32)C[C@@H]1O [Compound 760] | > 200 | –
23 | NS(=O)(=O)OC[C@H]1[C@H](F)[C@@H](Nc2ncncc2C(=O)c2cc3c(s2)COC[C@]32NCCc3c(F)cc(Cl)cc32)C[C@@H]1O [Compound 575] | 50 to 200 | –
24 | Cc1sc(C(=O)c2cncnc2N[C@H]2C[C@H](O)[C@@H](CCS(N)(=O)=O)[C@@H]2F)cc1[C@@H]1NCCc2ccc(Cl)cc21 [Compound 991] | 50 to 200 | –
25 | NS(=O)(=O)OC[C@H]1[C@H](F)[C@@H](Nc2ncncc2C(=O)c2nc3c(s2)CSCC32NCCc3ccc(Cl)cc32)C[C@@H]1O (stereo partly drawn) [Compound 591] | > 200 | –
26 | N#Cc1cc2c(cc1Cl)C1(CCCc3sc(C(=O)c4cncnc4N[C@H]4C[C@H](O)[C@@H](COS(N)(=O)=O)[C@@H]4F)cc31)NCC2 (stereo partly drawn) [Compound 114] | 50 to 200 | –
27 | CC1CNC2(C=Cc3sc(C(=O)c4cncnc4N[C@H]4C[C@H](O)[C@@H](COS(N)(=O)=O)[C@@H]4F)cc32)c2cc(Cl)ccc21 (stereo partly drawn) [Compound 1053] | 50 to 200 | –
28 | NS(=O)(=O)OC[C@H]1[C@H](F)[C@@H](Nc2ncncc2C(=O)c2cc3c(s2)C=C[C@]32OCCc3ccc(F)cc32)C[C@@H]1O [Compound 758] | ≤ 50 | –
29 | NS(=O)(=O)OC[C@H]1[C@H](F)[C@@H](Nc2ncncc2C(=O)c2cc3c(s2)CCC32NCCc3ccncc32)C[C@@H]1O (stereo partly drawn) [Compound 160] | 50 to 200 | –
30 | NS(=O)(=O)OC[C@H]1[C@H](F)[C@@H](Nc2ncncc2C(=O)c2cc3c(s2)CCC[C@@]32NCCc3ccc(Cl)nc32)C[C@@H]1O [Compound 601] | > 200 | –
31 | Cc1cc2c(cc1Cl)[C@@]1(CCCc3sc(C(=O)c4cncnc4N[C@H]4C[C@H](O)[C@@H](COS(N)(=O)=O)[C@@H]4F)cc31)NCC2 [Compound 673] | ≤ 50 | –
32 | COc1ccc2c(c1)C(c1cc(C(=O)c3cncnc3N[C@H]3C[C@H](O)[C@@H](COS(N)(=O)=O)[C@@H]3F)sc1C)NCC2 (stereo partly drawn) [Compound 243] | > 200 | –
33 | NS(=O)(=O)OC[C@H]1[C@H](F)[C@@H](Nc2ncncc2C(=O)c2cc3c(s2)CCC[C@]32NCCc3ccc(C4CC4)cc32)C[C@@H]1O [Compound 667] | 50 to 200 | –
34 | NS(=O)(=O)OC[C@H]1[C@H](F)[C@@H](Nc2ncncc2C(=O)c2cc3c(s2)CSC[C@@]32NCCc3ccc(Cl)cc32)C[C@@H]1O [Compound 301] | – | IC50 ([2]; numeric values): > 1000 nM
